The test system of assay [1] is Entero. cloacae HH 31254. Kind of assay: in vitro MIC testing, Entero. cloacae HH 31254. The note with it: Enterobacter cloacae, HH31254. The assay is classed as cell-based. The procedure: (§1) The compounds of Formula I have exceptional antibacterial activity against both Gram-positive and Gram-negative organisms. Minimum inhibitory concentrations (MIC's) range from 0.2 to >200 μg./ml. in in vitro testing. Test results for the compound 7-D-mandelamido-3-(5-carboxymethyl-1,3,4-oxadiazol-2-ylthiomethyl)-3-cephem-4-carboxylic acid and its disodium salt, respectively, are given below: […]

For assay [2], the system named is S. aureus HH 125. The assay can be described thus: in vitro MIC testing, S. aureus HH 125. Type of assay: cell-based. The note with it: Staphylococcus aureus, HH125. As to the method: as §1
Assay [3] concerns Salmonella ATCC 12176. Kind of assay: in vitro MIC testing, Salmonella ATCC 12176. The assay is classed as cell-based. The note with it: ATCC12176. As to the method: as §1
Assay [4] concerns Pseudo. aerug. HH 63. Kind of assay: in vitro MIC testing, Pseudo. aerug. HH 63. The assay is classed as cell-based. The procedure:
as §1

In assay [5] the test system is Kleb. pneumo. 4200. The assay can be described thus: in vivo mouse protection test, Kleb. pneumo. 4200. Particulars: sc, subcutaneous injection, against Kleb. pneumo. 4200. The source says:
(§2) 4200 upon subcutaneous injection.

In assay [6] the test system is Proteus morgani 179. Kind of assay: in vitro MIC testing, Proteus morgani 179. Type of assay: cell-based. The procedure:
as §1

The subject of assay [7] is Serratia marc. ATCC 13880. The assay can be described thus: in vitro MIC testing, Serratia marc. ATCC 13880. The assay is classed as cell-based. The note with it: ATCC13880. The procedure: as §1
The subject of assay [8] is E. coli 12140. The assay can be described thus: in vivo mouse protection test, E. coli 12140. The note with it: Escherichia coli, sc; subcutaneous injection; against E. coli 12140.
Text: as §2

Assay [9] has as its system Kleb. pneumo. SK 4200. The assay can be described thus: in vitro MIC testing, Kleb. pneumo. SK 4200. Type of assay: cell-based. As to the method:
as §1

In assay [10] the test system is S. aureus SK 23390. The assay can be described thus: in vitro MIC testing, S. aureus SK 23390. The note with it: Staphylococcus aureus, SK23390. The assay is classed as cell-based. As to the method: as §1
Assay [11] concerns Strep. faecalis HH 34358. The assay can be described thus: in vitro MIC testing, Strep. faecalis HH 34358. The assay is classed as cell-based. The note with it: Enterococcus faecalis, HH34358. As to the method:
as §1

Assay [12] has as its system Entero. aerog. ATCC 13048. The assay can be described thus: in vitro MIC testing, Entero. aerog. ATCC 13048. Type of assay: cell-based. As to the method: as §1
The test system of assay [13] is E. coli HH 33779. Kind of assay: in vitro MIC testing, E. coli HH 33779. Type of assay: cell-based. Particulars: Escherichia coli, HH33779. As to the method:
as §1

Assay [14] concerns Shigella HH 117. Kind of assay: in vitro MIC testing, Shigella HH 117. Type of assay: cell-based. The note with it: HH117. The procedure: as §1
Assay [15] concerns S. villaluz SK 70390. Kind of assay: in vitro MIC testing, S. villaluz SK 70390. The assay is classed as cell-based. As to the method: as §1
In assay [16] the test system is E. coli SK 12140. Kind of assay: in vitro MIC testing, E. coli SK 12140. The assay is classed as cell-based. The note with it: Escherichia coli, SK12140. The procedure:
as §1

For assay [17], the system named is Kleb. pneumo. SK 1200. Kind of assay: in vitro MIC testing, Kleb. pneumo. SK 1200. Type of assay: cell-based. The procedure: as §1

Drawing on US4034092A, “7-Acyl-3-(carboxyalkyl and carbamoylalkyl substituted oxadiazolylthiomethyl) cephalosporins” (SmithKline Corporation, priority 1976, dated 1977), this text covers MIC and ED50 for two compounds.

≈ marks a conversion by molar mass, not a printed value. Read-outs that look alike come from different tables or passages of the source.

As a reminder, the MIC is the least concentration at which growth counts as inhibited. For orientation: ED50 means the midpoint of the dose-response relation. For `O=C(O)Cc1nnc(SCC2=C(C(=O)O)N3C(=O)C(NC(=O)[C@H](O)c4ccccc4)[C@H]3SC2)o1` (stereo partly drawn) [7-D-Mandelamido-3-(5-carboxymethyl-1,3,4-oxadiazol-2-ylthiomethyl)-3-cephem-4-carboxylic acid], the MIC in assay [1] was 1.6 µg/mL (≈ 3.16 µM); in [2] (in vitro, S. aureus HH 125, read-out: MIC), 1.6 µg/mL (≈ 3.16 µM); in assay [3], 0.8 µg/mL (≈ 1.58 µM); in assay [4], greater than 200 µg/mL; in assay [6] it was 6.3 µg/mL (≈ 12.4 µM); in assay [7] (in vitro, Serratia marc. ATCC 13880, read-out: MIC) it was 25 µg/mL (≈ 49.4 µM). Also, the MIC in assay [9] was determined as 0.8 µg/mL (≈ 1.58 µM); in assay [10] (in vitro, S. aureus SK 23390, read-out: MIC) it was 0.4 µg/mL (≈ 0.79 µM); in assay [11] (in vitro, Strep. faecalis HH 34358, read-out: MIC), 12.5 µg/mL (≈ 24.7 µM); in assay [12], 3.1 µg/mL (≈ 6.12 µM); in [13] it was 1.6 µg/mL (≈ 3.16 µM); in [14], 0.2 µg/mL (≈ 0.395 µM). In addition, the MIC in [15] amounted to 50 µg/mL (≈ 98.7 µM); in assay [16], 0.8 µg/mL (≈ 1.58 µM); in assay [17] (in vitro, Kleb. pneumo. SK 1200, read-out: MIC) it was 0.8 µg/mL (≈ 1.58 µM). In addition, the ED50 in assay [5] was found to be 0.86 mg/kg; in assay [8], 1.56 mg/kg.
As to `O=C([O-])Cc1nnc(SCC2=C(C(=O)[O-])N3C(=O)C(NC(=O)[C@H](O)c4ccccc4)[C@H]3SC2)o1.[Na+].[Na+]` (stereo partly drawn) [7-D-Mandelamido-3-(5-carboxymethyl-1,3,4-oxadiazol-2-ylthiomethyl)-3-cephem-4-carboxylic acid disodium salt], the MIC in assay [2] is 3.1 µg/mL; in assay [3] it was 0.8 µg/mL; in assay [4], greater than 200 µg/mL; in assay [7] (Serratia), 50 µg/mL; in assay [10] it was 0.8 µg/mL; in [11], 50 µg/mL. For the same compound, the MIC in assay [13] is 3.1 µg/mL; in assay [14] it was 0.4 µg/mL; in assay [15], 200 µg/mL; in [16] it was 0.8 µg/mL; in assay [17], 0.4 µg/mL.
